Consider four molecules from publication PMC10674987, “Sweet Cherry Extract as Permeation Enhancer of Tyrosine Kinase Inhibitors: A Promising Prospective for Future Oral Anticancer Therapies” (Pharmaceuticals, 2023).

A word on the melting point: it is the temperature, or range, at which the solid turns liquid. As a reminder, the Papp A→B is how fast a substance crosses the layer from the apical side. The term Papp B→A denotes the apparent permeability from the basolateral to the apical side of a cell layer.

System in the first data set: not given
Assay: not given
To be noted: known from the literature; cited from earlier work.
Consider `CC(C)NCC(O)COc1cccc2ccccc12` (stereo not shown) [Propranolol, propranolol, reference compound], for which the “Oral bioavailability / oral absorption (of an oral dose)” value is reported as “around 90%”.

System in another data set: not given
Assay: not given
Conditions: human liver microsomes; previously published; cited from earlier work. (In general: Liver microsomes are a subcellular fraction often used to study metabolism.)
Take `Fc1ccc(C(Cl)Cn2ncc3c(NCc4ccccc4)ncnc32)cc1` (stereo not shown) [Cpd 1]: the “Metabolic Stability” value is reported as 84.2%.

Consider `CSc1nc(NCCc2ccccc2)c2cnn(CC(Cl)c3ccccc3)c2n1` (stereo not shown) [Cpd 2], for which the “Metabolic Stability” value is recorded as 96.6%.

Take `Oc1ccc(Cl)c(Nc2ncnc3c2cnn3CC(Cl)c2ccccc2)c1` (stereo not shown) [Cpd 3]: the “Metabolic Stability” value is 86.3%.

In another data set the test system is Caco-2 cells. The experiment in a line: Cell viability assay (MTT) on Caco-2 cells. It is filed as cell-based, human. To be noted: 1 µM, 2 h, vs untreated control. The protocol:
Cells were sub-cultured using a 1× trypsin/EDTA solution and then passed every 3–4 days at appropriate ratios (typically 1:3, 1:6, 1:12). […] After 2 h of treatment, solutions were aspirated from the wells, and the cells were washed with pre-warmed PBS. […] Furthermore, it was mandatory to identify the most suitable drug concentration that would avoid cytotoxic effects on Caco-2 cells (a condition that may bias the permeability study) and that would allow the optimal chromatographic response when analyzing the samples obtained. Therefore, cells were exposed to increasing concentrations of drugs (1–10–100 µM) for 2 h. […] In order to fully reproduce the conditions of the permeability studies and assess the possible induction of irreversible cytotoxic effects by SCE or drugs, cell viability was also checked after a further 24 h of incubation in free medium (2 h + 24 h). Cell viability was assessed as above described.
In the case of `CC(C)NCC(O)COc1cccc2ccccc12` (stereo not shown) [Propranolol, propranolol, reference compound], the Cell viability entry is “no significant signs of toxicity”.

Still in this data set, the particulars now being: 100 µM, 2 h.
Regarding `CC(C)NCC(O)COc1cccc2ccccc12` (stereo not shown) [Propranolol, propranolol, reference compound], the Cell viability result was “high percentages of viable cells”.

System in the next data set: not given
Assay: not given
Settings: not given
In turn, `Fc1ccc(C(Cl)Cn2ncc3c(NCc4ccccc4)ncnc32)cc1` (stereo not shown) [Cpd 1] displayed a melting point of 143 to 144 °C.

System in another data set: not given
Assay: not given
Conditions: previously published; cited from earlier work.
Take `Fc1ccc(C(Cl)Cn2ncc3c(NCc4ccccc4)ncnc32)cc1` (stereo not shown) [Cpd 1]: the “PAMPA membrane retention (MR %)” value is 9.2%.

Consider `CSc1nc(NCCc2ccccc2)c2cnn(CC(Cl)c3ccccc3)c2n1` (stereo not shown) [Cpd 2], for which the “PAMPA Papp” value is on record as 3.2 10^−6 cm/s and the “PAMPA membrane retention (MR %)” value was 42.7%.

Consider `Oc1ccc(Cl)c(Nc2ncnc3c2cnn3CC(Cl)c2ccccc2)c1` (stereo not shown) [Cpd 3], for which the “PAMPA Papp” value was 4.3 (-) 10^−6 cm/s.

System in another data set: not given
Assay: not given
Conditions: known from literature; cited from earlier work.
As to `CC(C)NCC(O)COc1cccc2ccccc12` (stereo not shown) [Propranolol, propranolol, reference compound], the Papp entry is given as “higher than 10 × 10^−6 cm/s”.

System in another data set: not listed separately
Description: Bidirectional permeability in Caco-2 cells in absence and presence of SCE. It is filed as in vitro ADME, human. Conditions: human, Caco-2, +SCE [1 mg/mL]; 10 µM compound; apical to basolateral. The protocol: (§1) Caco-2 cells were seeded at a density of 2 × 10^4 on Transwell supports (0.4 µm pore polycarbonate membrane, 6.5 mm) and incubated overnight in a controlled atmosphere of 37 °C and 5% of CO2. The following day, the medium was changed to remove floating cells and fresh pre-warmed DMEM 20% was added (300 µL in the apical compartment and 1200 µL in the basal one). Cells were cultured for approximately 18–21 days in order to ensure that the cellular monolayers differentiated and many transport proteins and brush border hydrolases were expressed. Media were changed every 2–3 days.
(§2) For permeability studies, stock solutions of compounds were prepared by solubilizing 1.0 mg of accurately weighed powder with dimethyl sulfoxide (DMSO) and conserved at −20 °C. Immediately prior to the experiments, working solutions (WS) were prepared by diluting the stock solutions with pre-warmed HBSS to the final concentration of 10 µM. The final concentration of DMSO used never exceeded 0.1% v/v. The assays were performed in both the absorptive (from apical-to-basolateral compartment (A-B)) and the secretory direction (from basolateral-to-apical compartment (B-A)), both in the absence (Free) and presence of sweet cherry extract (+SCE [1 mg/mL]) diluted in HBSS. The final volumes used for the experiment were 300 µL in the apical compartment and 1200 µL in the basolateral one. Plates were incubated at 37 °C and maintained under gentle shaking (500 rpm) to reduce the effect of the unstirred water layer. At selected time points (T0–0.25–0.5–1–2 h-TEND for the A-B studies; T0–2 h–TEND for the B-A studies), samples (200 µL) were collected from the receiving compartments (from the basolateral compartment for the A-B assay; from the apical one for the B-A study) and replaced with the same volume of HBSS. The HPLC-UV/MS method was developed to quantify the amount of drug transferred across the cellular monolayer, and permeability (Papp, 10^−6 cm/s) and efflux ratio (ER) were calculated according to the following equations:Papp = (dQ/dt) × 1/(A × C0)(5) where dQ/dt is the steady-state flux (µmol s^−1), A is the area of the filter (cm^2), and C0 is the initial concentration in the donor compartment (µM). ER = (Papp B-A)/(Papp A-B)(6)
(§3) Chromatographic analyses were carried out using an Agilent 1260 Infinity HPLC-DAD system connected to an Agilent MSD 6130 system (Agilent Technologies, Palo Alto, CA, USA). At room temperature, a Kinetex C18-100 Å column (150 mm 4.6 mm, purchased from Phenomenex, Torrance, CA, USA) with a 5 µm particle size and gradient elution with a binary solution (eluent A: H2O, eluent B: ACN, both acidified with 0.1% v/v formic acid) was for the chromatographic separation. Analyses started with 5% B (from t = 0 to t = 1 min), then increased to 95% (from t = 1 to t = 10 min), then maintained at 95% (from t = 10 to t = 15 min), and finally returned to […] in 1.0 min. The volume injected was 10 µL, and the flow rate 600 µL/min. UV detection was monitored at 254 nm, and spectra were collected in both the positive and negative modes within the scan range of m/z 100–1500.
(Caco-2 cells form a polarised layer with tight junctions and transporters.)
Regarding `Fc1ccc(C(Cl)Cn2ncc3c(NCc4ccccc4)ncnc32)cc1` (stereo not shown) [Cpd 1], the apical-to-basolateral permeability (Papp A→B) at 2 h, 10 µM was determined as 16.167 ± 0.014 ×10⁻⁶ cm/s.

On to `CSc1nc(NCCc2ccccc2)c2cnn(CC(Cl)c3ccccc3)c2n1` (stereo not shown) [Cpd 2], for which the Papp A→B at 2 h, 10 µM was found to be 0.224 ± 0.009 ×10⁻⁶ cm/s.

For `Oc1ccc(Cl)c(Nc2ncnc3c2cnn3CC(Cl)c2ccccc2)c1` (stereo not shown) [Cpd 3], the Papp A→B at 2 h, 10 µM was 16.3 ± 0.537 ×10⁻⁶ cm/s.

On to `CC(C)NCC(O)COc1cccc2ccccc12` (stereo not shown) [Propranolol, propranolol, reference compound], for which the Papp A→B at 2 h, 10 µM amounted to 93.1 ± 3.84 ×10⁻⁶ cm/s.

Still in this data set, the particulars now being: human, Caco-2, +SCE [1 mg/mL]; 10 µM compound; basolateral to apical.
In the case of `Fc1ccc(C(Cl)Cn2ncc3c(NCc4ccccc4)ncnc32)cc1` (stereo not shown) [Cpd 1], the Papp B→A at 2 h, 10 µM turned out to be 26.8 ± 3.68 ×10⁻⁶ cm/s.

In the case of `CSc1nc(NCCc2ccccc2)c2cnn(CC(Cl)c3ccccc3)c2n1` (stereo not shown) [Cpd 2], the Papp B→A at 2 h, 10 µM stood at 2.3 ± 0.279 ×10⁻⁶ cm/s.

Turning to `Oc1ccc(Cl)c(Nc2ncnc3c2cnn3CC(Cl)c2ccccc2)c1` (stereo not shown) [Cpd 3], the Papp B→A at 2 h, 10 µM was 32.5 ± 0.784 ×10⁻⁶ cm/s.

Take `CC(C)NCC(O)COc1cccc2ccccc12` (stereo not shown) [Propranolol, propranolol, reference compound]: the Papp B→A at 2 h, 10 µM is 37.2 ± 4.73 ×10⁻⁶ cm/s.

Staying with this data set, now noted: human, Caco-2, +SCE [1 mg/mL]; 10 µM compound; read-out: Efflux ratio (ER) (Papp B-A/Papp A-B).
For the molecule `Fc1ccc(C(Cl)Cn2ncc3c(NCc4ccccc4)ncnc32)cc1` (stereo not shown) [Cpd 1], the efflux ratio at 2 h, 10 µM was determined as 1.66 ± 0.226.

As to `CSc1nc(NCCc2ccccc2)c2cnn(CC(Cl)c3ccccc3)c2n1` (stereo not shown) [Cpd 2], the efflux ratio at 2 h, 10 µM is 10.2 ± 0.837.

With `Oc1ccc(Cl)c(Nc2ncnc3c2cnn3CC(Cl)c2ccccc2)c1` (stereo not shown) [Cpd 3], the efflux ratio at 2 h, 10 µM turned out to be 2 ± 0.114.

`CC(C)NCC(O)COc1cccc2ccccc12` (stereo not shown) [Propranolol, propranolol, reference compound]: the efflux ratio at 2 h, 10 µM came to 0.399 ± 0.034.

The same data set, now with this note: human, Caco-2, Free; 10 µM compound; apical to basolateral.
In the case of `Fc1ccc(C(Cl)Cn2ncc3c(NCc4ccccc4)ncnc32)cc1` (stereo not shown) [Cpd 1], the Papp A→B at 2 h, 10 µM amounted to 4.943 ± 0.044 ×10⁻⁶ cm/s.

Take `Oc1ccc(Cl)c(Nc2ncnc3c2cnn3CC(Cl)c2ccccc2)c1` (stereo not shown) [Cpd 3]: the Papp A→B at 2 h, 10 µM was 1.68 ± 0.061 ×10⁻⁶ cm/s.

For `CC(C)NCC(O)COc1cccc2ccccc12` (stereo not shown) [Propranolol, propranolol, reference compound], the Papp A→B at 2 h, 10 µM worked out at 41.3 ± 4.28 ×10⁻⁶ cm/s.

The same data set, now with this note: human, Caco-2, Free; 10 µM compound; basolateral to apical.
With `Fc1ccc(C(Cl)Cn2ncc3c(NCc4ccccc4)ncnc32)cc1` (stereo not shown) [Cpd 1], the Papp B→A at 2 h, 10 µM is 15.1 ± 1.57 ×10⁻⁶ cm/s.

As for `CSc1nc(NCCc2ccccc2)c2cnn(CC(Cl)c3ccccc3)c2n1` (stereo not shown) [Cpd 2], the Papp B→A at 2 h, 10 µM came to 10.4 ± 0.363 ×10⁻⁶ cm/s.

As for `Oc1ccc(Cl)c(Nc2ncnc3c2cnn3CC(Cl)c2ccccc2)c1` (stereo not shown) [Cpd 3], the Papp B→A at 2 h, 10 µM was 4.74 ± 0.097 ×10⁻⁶ cm/s.

For `CC(C)NCC(O)COc1cccc2ccccc12` (stereo not shown) [Propranolol, propranolol, reference compound], the Papp B→A at 2 h, 10 µM worked out at 33.6 ± 0.967 ×10⁻⁶ cm/s.

Still in this data set, the particulars now being: human, Caco-2, Free; 10 µM compound; read-out: Efflux ratio (ER) (Papp B-A/Papp A-B).
Consider `Fc1ccc(C(Cl)Cn2ncc3c(NCc4ccccc4)ncnc32)cc1` (stereo not shown) [Cpd 1], for which the efflux ratio at 2 h, 10 µM was ~3.

Take `CSc1nc(NCCc2ccccc2)c2cnn(CC(Cl)c3ccccc3)c2n1` (stereo not shown) [Cpd 2]: the efflux ratio at 2 h, 10 µM is 97.3 ± 4.49.

Regarding `Oc1ccc(Cl)c(Nc2ncnc3c2cnn3CC(Cl)c2ccccc2)c1` (stereo not shown) [Cpd 3], the efflux ratio at 2 h, 10 µM is ~3.

For another data set, the system named is Caco-2 monolayer. Described as above. The class given is in vitro ADME, human. To be noted: +SCE 1 mg/mL vs Free. As for the experimental part: as §1, §2, §3
Take `Fc1ccc(C(Cl)Cn2ncc3c(NCc4ccccc4)ncnc32)cc1` (stereo not shown) [Cpd 1]: the “Change of Papp A-B in presence of SCE vs Free” value (“Change of Papp A-B … vs Free” below) is “about three and four times”; the “Change of Papp B-A in presence of SCE vs Free” value is recorded as “more interesting implementation”; the “Change of efflux ratio in presence of SCE vs Free” value (“Change of efflux ratio … vs Free” below) was “almost halved”.

For `CSc1nc(NCCc2ccccc2)c2cnn(CC(Cl)c3ccccc3)c2n1` (stereo not shown) [Cpd 2], the “Change of Papp A-B … vs Free” value is recorded as “almost doubled”, the “Change of Papp B-A in presence of SCE vs Free” value is “significant reduction” and the “Change of efflux ratio … vs Free” value is listed as “nine-fold reduction”.

Turning to `Oc1ccc(Cl)c(Nc2ncnc3c2cnn3CC(Cl)c2ccccc2)c1` (stereo not shown) [Cpd 3], the “Change of Papp A-B … vs Free” value is ~10 fold, the “Change of Papp B-A in presence of SCE vs Free” value is on record as “more interesting implementation” and the “Change of efflux ratio … vs Free” value was “almost halved”.

Regarding `CC(C)NCC(O)COc1cccc2ccccc12` (stereo not shown) [Propranolol, propranolol, reference compound], the “Change of Papp A-B … vs Free” value was “doubled”, the “Change of Papp B-A in presence of SCE vs Free” value is given as “did not show relevant changes” and the “Change of efflux ratio … vs Free” value is “almost halved”.
